The values that follow come from BindingDB's records for doi:10.1021/acschembio.5b00817 (University of Leipzig, 2015).

What is called IC50 is the point on the concentration scale where inhibition reaches its midpoint. Low readings indicate higher potency, high ones lower potency. What is called Ki is a dissociation constant, usually derived from enzyme kinetics or from competition with a known ligand. Low readings indicate tighter binding, high ones weaker binding.

The target in experiment [1] is T1, Signal transducer and activator of transcription 5A (Homo sapiens, UniProt P42229).
T1 sequence (P42229 whole entry): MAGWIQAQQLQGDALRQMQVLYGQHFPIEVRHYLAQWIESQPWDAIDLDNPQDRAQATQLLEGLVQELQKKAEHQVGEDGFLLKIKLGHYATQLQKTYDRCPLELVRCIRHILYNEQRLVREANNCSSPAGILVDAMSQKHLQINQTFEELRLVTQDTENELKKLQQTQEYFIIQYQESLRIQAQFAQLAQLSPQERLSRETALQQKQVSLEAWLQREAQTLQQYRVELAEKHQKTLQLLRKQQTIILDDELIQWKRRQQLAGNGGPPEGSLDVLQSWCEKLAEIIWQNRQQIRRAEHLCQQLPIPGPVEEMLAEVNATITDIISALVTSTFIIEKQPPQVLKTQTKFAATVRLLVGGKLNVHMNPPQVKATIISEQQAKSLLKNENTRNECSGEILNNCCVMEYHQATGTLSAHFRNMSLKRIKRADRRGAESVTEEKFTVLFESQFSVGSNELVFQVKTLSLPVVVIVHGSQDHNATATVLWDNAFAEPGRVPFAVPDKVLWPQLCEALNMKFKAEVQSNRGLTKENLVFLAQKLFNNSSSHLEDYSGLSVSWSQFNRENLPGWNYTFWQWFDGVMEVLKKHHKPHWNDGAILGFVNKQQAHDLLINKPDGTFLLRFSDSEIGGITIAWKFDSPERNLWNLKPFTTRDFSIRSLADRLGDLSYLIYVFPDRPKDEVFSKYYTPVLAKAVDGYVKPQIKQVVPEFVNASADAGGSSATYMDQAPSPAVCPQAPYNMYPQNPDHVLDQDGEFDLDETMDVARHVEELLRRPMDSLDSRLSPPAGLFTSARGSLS
The experiment can be described thus: Fluorescence Polarization Assay. The procedure: (§1) For competition-based fluorescence polarization assays, the ability of the test compounds to displace fluorophore-labeled peptides from their respective binding proteins was analyzed as previously described.3 Peptide sequences were: STAT1: 5-carboxyfluorescein-GY(PO3H2)DKPHVL; STAT3: 5-carboxyfluorescein-GY(PO3H2)LPQTV-NH2; STAT4: 5-carboxyfluorescein-GY(PO3H2)LPQNID-OH; STAT5a and STAT5b: 5-carboxyfluorescein-GY(PO3H2)LVLDKW; STAT6: 5-carboxyfluorescein-GY(PO3H2)VPWQDLI-OH; Lck SH2: 5-carboxyfluorescein-GY(PO3H2)EEIP. Due to protein instability, STAT2 was not analyzed. Final concentration of 5-carboxyfluorescein-labeled peptides: 10 nM. […] Pipetting was carried out partly using a Biomek FX workstation (Beckman-Coulter). Pr
(In general: In fluorescence polarisation assays a small probe gives low polarisation when free and higher when bound to something large.)

In experiment [2] the target is T2, Signal transducer and activator of transcription 5B (Homo sapiens, UniProt P51692).
T2 sequence (P51692 whole entry): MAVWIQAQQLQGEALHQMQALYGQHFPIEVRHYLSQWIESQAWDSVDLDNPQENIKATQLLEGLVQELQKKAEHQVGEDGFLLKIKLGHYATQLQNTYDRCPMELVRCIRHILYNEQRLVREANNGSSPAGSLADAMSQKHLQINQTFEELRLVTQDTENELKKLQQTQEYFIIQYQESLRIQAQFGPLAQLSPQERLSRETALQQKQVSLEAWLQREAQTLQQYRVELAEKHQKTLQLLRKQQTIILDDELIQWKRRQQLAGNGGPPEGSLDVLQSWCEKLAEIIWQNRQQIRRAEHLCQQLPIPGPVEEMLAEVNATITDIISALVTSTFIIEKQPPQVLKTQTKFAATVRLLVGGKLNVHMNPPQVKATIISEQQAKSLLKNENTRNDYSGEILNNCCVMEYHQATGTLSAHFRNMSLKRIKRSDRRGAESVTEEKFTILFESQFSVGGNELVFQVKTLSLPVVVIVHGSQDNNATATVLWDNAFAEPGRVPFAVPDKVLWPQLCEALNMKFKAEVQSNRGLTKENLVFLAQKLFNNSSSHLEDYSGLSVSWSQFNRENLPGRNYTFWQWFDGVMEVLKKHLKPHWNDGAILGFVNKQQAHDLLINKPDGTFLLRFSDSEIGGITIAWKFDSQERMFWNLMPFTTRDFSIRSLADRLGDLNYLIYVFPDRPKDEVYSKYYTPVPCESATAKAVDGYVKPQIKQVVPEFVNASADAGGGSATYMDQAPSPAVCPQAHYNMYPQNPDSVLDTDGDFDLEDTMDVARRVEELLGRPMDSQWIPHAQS
The experiment can be described thus: Fluorescence Polarization Assay. Here is the method: as §1

In experiment [1], `COc1cc(CNC(=O)CCCCCCC(C)C)ccc1OP(=O)(O)O` [2-Methoxy-4-((8-methylnonanamido)methyl)phenyl dihydrogen phosphate (3a)] showed an IC50 of 152 µM and a Ki of 75 µM.

In experiment [1], `CCCCCCCCC(=O)NCc1ccc(OP(=O)(O)O)c(OC)c1` [2-Methoxy-4-(nonanamidomethyl)phenyl dihydrogen phosphate (3b)] yielded an IC50 of 98 µM and a Ki of 49 µM. Also, in experiment [2], inhibition was half-maximal at 196 µM (IC50) and the Ki worked out at 96 µM.

For the molecule `CC(C)CCCCCCC(=O)NCc1ccc(OP(=O)(O)O)c(OP(=O)(O)O)c1` [4-((8-Methylnonanamido)methyl)-1,2-phenylene bis(dihydrogen phosphate) (6a)], the results for the IC50 in experiment [1] and in experiment [2] were 26.4 µM and 0.75 µM, respectively. The Ki in experiment [1] worked out at 13 µM; in experiment [2], 0.34 µM.

On to `CCCCCCCCC(=O)NCc1ccc(OP(=O)(O)O)c(OP(=O)(O)O)c1` [4-(Nonanamidomethyl)-1,2-phenylene bis(dihydrogen phosphate) (6b)], for which the IC50 amounted to 24.9 µM in experiment [1] and 0.86 µM in experiment [2]. The Ki is 12.3 µM in experiment [1] and 0.39 µM in experiment [2].
